In patent US10245261B2, “Substituted indol-5-ol derivatives and their therapeutic applications” (NantBioScience, Inc., priority 2013, dated 2019):

How the values were obtained:
Experiment in all cases: KinaseProfiler kinase assay
Format in all cases: biochemical
[1] = target: PAK4(h) (Homo sapiens, UniProt O96013)
In short: (§1)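 Kinase activity is followed by incorporation of 33P from [γ-33P]ATP in 8 mM MOPS pH 7.0 with 10 mM Mg acetate and 0.2 mM EDTA over 40 min at room temperature. Inhibition is scaled between no-kinase and phosphopeptide control wells.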

[2] = target: MARK1(h) (Homo sapiens, UniProt Q9P0L2)
In short: as §1

[3] = target: ROCK-I(h) (Homo sapiens, UniProt Q13464)
In short: as §1

[4] = target: NLK(h) (Homo sapiens, UniProt Q9UBE8)
In short: as §1

[5] = target: Yes(h) (Homo sapiens, UniProt P07947)
In short: as §1

[6] = target: PI3 Kinase (p110δ/p85α)(h) (Homo sapiens, UniProt O00329)
In short: as §1

[7] = target: Aurora-B(h) (Homo sapiens, UniProt Q96GD4)
In short: as §1

[8] = target: GRK6(h) (Homo sapiens, UniProt P43250)
In short: as §1

[9] = target: MKK4(m) (Mus musculus, UniProt P47809)
In short: as §1

[10] = target: Bmx(h) (Homo sapiens, UniProt P51813)
In short: as §1

[11] = target: PAK6(h) (Homo sapiens, UniProt Q9NQU5)
In short: as §1

[12] = target: HIPK2(h) (Homo sapiens, UniProt Q9H2X6)
In short: as §1

[13] = target: CLK3(h) (Homo sapiens, UniProt P49761)
In short: as §1

[14] = target: PEK(h) (Homo sapiens, UniProt Q9NZJ5)
In short: as §1

[15] = target: Src(T341M)(h) (Homo sapiens, UniProt P12931, T341M)
In short: as §1

[16] = target: MKK7β(h) (Homo sapiens, UniProt O14733)
In short: as §1

[17] = target: ASK1(h) (Homo sapiens, UniProt Q99683)
In short: as §1

[18] = target: IGF-1R(h), activated (Homo sapiens, UniProt P08069)
In short: as §1

[19] = target: MST2(h) (Homo sapiens, UniProt Q13188)
In short: as §1

[20] = target: TSSK2(h) (Homo sapiens, UniProt Q96PF2)
In short: as §1

[21] = target: AMPKα1(h) (Homo sapiens, UniProt Q13131)
In short: as §1

[22] = target: PI3 Kinase (p110α/p65α)(h) (Homo sapiens, UniProt P42336)
In short: as §1

[23] = target: SAPK2a(T106M)(h) (Homo sapiens, UniProt Q16539, T106M)
In short: as §1

[24] = target: PKCζ(h) (Homo sapiens, UniProt Q05513)
In short: as §1

[25] = target: EphA8(h) (Homo sapiens, UniProt P29322)
In short: as §1

[26] = target: ACK1(h) (Homo sapiens, UniProt Q07912)
In short: as §1

[27] = target: SGK3(h) (Homo sapiens, UniProt Q96BR1)
In short: as §1

[28] = target: EGFR(T790M)(h) (Homo sapiens, UniProt P00533, T790M)
In short: as §1

[29] = target: Fyn(h) (Homo sapiens, UniProt P06241)
In short: as §1

[30] = target: Mnk2(h) (Homo sapiens, UniProt Q9HBH9)
In short: as §1

[31] = target: PRAK(h) (Homo sapiens, UniProt Q8IW41)
In short: as §1

[32] = target: PTK5(h) (Homo sapiens, UniProt P42685)
In short: as §1

PI3 Kinase (p110δ/p85α)(h), sequence (O00329 whole entry): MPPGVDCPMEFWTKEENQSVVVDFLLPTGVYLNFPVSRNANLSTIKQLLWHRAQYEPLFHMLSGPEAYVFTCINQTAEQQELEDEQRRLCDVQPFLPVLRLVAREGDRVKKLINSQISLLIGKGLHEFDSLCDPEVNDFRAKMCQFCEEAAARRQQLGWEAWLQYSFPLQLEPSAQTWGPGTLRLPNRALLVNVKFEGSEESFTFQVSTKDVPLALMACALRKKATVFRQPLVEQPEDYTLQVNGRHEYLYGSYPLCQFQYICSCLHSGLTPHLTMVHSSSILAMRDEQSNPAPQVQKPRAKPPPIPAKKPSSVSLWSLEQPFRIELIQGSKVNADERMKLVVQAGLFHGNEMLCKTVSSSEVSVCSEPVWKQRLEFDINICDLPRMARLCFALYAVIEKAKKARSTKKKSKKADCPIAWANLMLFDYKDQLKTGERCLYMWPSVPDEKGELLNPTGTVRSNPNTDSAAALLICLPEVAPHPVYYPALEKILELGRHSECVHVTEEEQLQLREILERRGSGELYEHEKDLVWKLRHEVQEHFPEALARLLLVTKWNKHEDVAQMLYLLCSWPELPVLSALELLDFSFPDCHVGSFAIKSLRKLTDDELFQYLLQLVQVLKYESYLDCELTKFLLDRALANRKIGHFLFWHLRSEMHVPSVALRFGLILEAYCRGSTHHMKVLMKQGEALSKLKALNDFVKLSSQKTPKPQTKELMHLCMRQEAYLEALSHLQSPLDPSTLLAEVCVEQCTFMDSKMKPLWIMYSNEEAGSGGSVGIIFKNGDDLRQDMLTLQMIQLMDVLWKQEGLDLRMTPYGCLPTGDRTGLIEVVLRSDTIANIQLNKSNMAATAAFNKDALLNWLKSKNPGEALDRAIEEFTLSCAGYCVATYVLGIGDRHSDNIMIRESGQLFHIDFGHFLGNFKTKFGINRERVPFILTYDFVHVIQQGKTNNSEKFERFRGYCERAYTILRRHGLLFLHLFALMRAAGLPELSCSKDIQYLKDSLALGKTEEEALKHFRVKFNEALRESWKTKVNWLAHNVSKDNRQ
PI3 Kinase (p110δ/p85α)(h), sequence (P27986 whole entry partner): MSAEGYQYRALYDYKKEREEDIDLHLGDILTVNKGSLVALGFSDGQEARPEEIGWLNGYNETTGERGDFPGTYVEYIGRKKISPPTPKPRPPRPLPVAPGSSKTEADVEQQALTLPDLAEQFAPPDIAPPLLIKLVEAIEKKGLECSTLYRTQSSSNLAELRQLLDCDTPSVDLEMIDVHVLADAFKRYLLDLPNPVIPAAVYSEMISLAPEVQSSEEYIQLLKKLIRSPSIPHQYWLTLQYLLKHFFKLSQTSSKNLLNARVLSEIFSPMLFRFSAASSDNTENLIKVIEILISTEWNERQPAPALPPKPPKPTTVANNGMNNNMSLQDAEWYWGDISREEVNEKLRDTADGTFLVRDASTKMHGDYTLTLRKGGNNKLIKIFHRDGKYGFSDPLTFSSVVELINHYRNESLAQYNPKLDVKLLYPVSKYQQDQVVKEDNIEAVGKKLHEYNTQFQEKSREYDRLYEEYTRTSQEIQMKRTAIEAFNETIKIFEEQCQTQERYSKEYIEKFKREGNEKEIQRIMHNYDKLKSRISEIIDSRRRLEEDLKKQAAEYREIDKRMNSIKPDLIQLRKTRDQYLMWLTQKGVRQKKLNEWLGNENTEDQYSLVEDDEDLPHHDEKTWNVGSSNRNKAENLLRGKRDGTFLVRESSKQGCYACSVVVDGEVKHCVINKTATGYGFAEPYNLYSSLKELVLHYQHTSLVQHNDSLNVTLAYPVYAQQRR
PAK6(h), sequence (Q9NQU5 whole entry): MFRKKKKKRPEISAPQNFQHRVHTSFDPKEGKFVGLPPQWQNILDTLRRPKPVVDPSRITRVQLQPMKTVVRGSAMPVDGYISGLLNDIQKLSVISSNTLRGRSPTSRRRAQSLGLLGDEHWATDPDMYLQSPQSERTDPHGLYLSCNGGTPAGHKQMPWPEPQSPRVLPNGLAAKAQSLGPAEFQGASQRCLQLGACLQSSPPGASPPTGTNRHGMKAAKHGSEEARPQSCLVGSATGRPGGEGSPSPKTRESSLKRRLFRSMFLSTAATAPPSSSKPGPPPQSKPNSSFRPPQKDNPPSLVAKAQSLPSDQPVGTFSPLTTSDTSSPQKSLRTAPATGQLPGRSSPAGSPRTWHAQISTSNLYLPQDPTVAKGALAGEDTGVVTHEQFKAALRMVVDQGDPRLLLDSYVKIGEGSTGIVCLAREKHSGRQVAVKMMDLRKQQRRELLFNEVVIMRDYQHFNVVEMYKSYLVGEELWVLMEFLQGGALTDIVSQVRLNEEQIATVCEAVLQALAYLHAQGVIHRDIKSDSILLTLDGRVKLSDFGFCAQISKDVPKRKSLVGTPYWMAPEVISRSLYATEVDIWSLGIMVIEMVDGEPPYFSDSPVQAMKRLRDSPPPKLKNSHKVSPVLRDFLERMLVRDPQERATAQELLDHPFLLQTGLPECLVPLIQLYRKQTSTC
AMPKα1(h), sequence (Q13131 whole entry): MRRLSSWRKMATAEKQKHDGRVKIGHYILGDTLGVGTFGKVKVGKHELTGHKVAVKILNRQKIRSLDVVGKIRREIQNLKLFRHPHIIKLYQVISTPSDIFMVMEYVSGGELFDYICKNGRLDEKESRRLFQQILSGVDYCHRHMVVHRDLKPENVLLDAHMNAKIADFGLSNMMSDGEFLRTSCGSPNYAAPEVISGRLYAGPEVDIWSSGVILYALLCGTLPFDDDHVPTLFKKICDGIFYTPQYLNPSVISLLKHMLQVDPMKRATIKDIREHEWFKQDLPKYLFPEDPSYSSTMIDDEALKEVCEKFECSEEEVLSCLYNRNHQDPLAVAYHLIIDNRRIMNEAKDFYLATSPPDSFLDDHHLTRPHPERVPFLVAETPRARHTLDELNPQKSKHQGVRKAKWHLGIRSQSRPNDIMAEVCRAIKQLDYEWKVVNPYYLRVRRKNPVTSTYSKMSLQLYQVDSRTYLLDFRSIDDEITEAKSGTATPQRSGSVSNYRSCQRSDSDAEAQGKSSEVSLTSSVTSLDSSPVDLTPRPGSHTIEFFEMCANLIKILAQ
AMPKα1(h), sequence (Q9Y478 whole entry partner): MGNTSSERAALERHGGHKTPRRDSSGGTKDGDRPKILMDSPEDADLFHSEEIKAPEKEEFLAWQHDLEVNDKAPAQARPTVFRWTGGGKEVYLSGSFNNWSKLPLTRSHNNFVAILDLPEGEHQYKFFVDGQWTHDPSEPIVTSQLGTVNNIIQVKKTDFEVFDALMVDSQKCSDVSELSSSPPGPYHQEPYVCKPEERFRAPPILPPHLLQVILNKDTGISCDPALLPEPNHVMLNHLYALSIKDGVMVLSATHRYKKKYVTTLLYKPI
AMPKα1(h), sequence (P54619 whole entry partner): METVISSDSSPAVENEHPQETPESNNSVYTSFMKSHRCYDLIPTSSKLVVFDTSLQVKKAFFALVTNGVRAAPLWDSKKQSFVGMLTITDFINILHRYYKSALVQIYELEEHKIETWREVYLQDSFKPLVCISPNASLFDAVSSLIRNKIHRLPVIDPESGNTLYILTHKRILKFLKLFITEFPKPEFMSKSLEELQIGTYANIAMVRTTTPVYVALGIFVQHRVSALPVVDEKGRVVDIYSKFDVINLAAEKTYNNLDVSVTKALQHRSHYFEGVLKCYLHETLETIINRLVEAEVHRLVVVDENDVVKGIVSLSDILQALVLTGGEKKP
MST2(h), sequence (Q13188 whole entry): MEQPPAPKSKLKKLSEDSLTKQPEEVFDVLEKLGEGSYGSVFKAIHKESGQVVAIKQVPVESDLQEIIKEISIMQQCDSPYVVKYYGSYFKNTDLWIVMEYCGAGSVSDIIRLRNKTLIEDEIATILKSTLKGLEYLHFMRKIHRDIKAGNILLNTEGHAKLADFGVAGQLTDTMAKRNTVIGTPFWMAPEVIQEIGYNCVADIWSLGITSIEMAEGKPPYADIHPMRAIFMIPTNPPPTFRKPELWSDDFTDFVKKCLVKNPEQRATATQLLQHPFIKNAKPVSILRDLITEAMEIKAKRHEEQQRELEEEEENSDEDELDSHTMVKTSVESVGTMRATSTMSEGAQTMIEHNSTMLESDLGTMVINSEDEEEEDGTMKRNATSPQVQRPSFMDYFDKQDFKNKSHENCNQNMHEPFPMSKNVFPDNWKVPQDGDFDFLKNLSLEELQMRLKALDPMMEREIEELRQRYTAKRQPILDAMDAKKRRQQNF
IGF-1R(h), activated, sequence (P08069 959-1367): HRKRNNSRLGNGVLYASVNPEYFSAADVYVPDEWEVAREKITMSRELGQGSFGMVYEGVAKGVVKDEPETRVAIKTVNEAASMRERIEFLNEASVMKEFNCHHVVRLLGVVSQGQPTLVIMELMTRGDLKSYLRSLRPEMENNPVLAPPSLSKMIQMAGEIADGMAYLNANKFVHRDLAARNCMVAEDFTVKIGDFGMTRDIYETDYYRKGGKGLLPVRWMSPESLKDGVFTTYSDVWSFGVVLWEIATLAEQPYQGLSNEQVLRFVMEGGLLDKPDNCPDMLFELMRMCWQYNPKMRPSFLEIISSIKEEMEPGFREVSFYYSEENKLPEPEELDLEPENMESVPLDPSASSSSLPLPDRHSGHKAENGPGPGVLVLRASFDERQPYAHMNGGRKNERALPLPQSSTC
Mnk2(h), sequence (Q9HBH9 whole entry): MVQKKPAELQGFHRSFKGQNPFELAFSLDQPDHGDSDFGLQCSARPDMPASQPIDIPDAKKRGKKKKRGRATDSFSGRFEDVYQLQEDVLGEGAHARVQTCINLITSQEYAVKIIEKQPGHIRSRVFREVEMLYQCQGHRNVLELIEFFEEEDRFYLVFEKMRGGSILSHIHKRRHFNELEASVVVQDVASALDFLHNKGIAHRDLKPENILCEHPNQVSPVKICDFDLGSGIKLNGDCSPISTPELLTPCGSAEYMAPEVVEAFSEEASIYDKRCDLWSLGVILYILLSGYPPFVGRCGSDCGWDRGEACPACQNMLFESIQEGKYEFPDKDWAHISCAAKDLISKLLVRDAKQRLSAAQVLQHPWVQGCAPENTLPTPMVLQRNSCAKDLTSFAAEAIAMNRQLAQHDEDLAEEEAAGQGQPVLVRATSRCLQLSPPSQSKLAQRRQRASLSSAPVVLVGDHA

`Cc1cc2c(F)c(Oc3nc(Nc4cc(C5CC5)[nH]n4)cc(N4CCN(C)CC4)n3)ccc2[nH]1` [Compound 10] gave an inhibition at 0.1 µM [1] of 29%, an inhibition at 0.1 µM [2] of 67% and an inhibition at 0.1 µM [3] of -15%. For the same compound, the inhibition at 0.1 µM [4] was -12%, the inhibition at 0.1 µM [5] was 99% and the inhibition at 0.1 µM [6] was 2%. For the same compound, the inhibition at 0.1 µM [7] was 97%, the inhibition at 0.1 µM [8] was -5% and the inhibition at 0.1 µM [9] was -2%. It also gave an inhibition at 0.1 µM [10] of 98%, an inhibition at 0.1 µM [11] of 0% and an inhibition at 0.1 µM [12] of -2%. It also gave an inhibition at 0.1 µM [13] of 16%, an inhibition at 0.1 µM [14] of -4% and an inhibition at 0.1 µM [15] of 102%. It also gave an inhibition at 0.1 µM [16] of -26%, an inhibition at 0.1 µM [17] of -14% and an inhibition at 0.1 µM [18] of 59%. The inhibition at 0.1 µM [19] was 24%, the inhibition at 0.1 µM [20] was 5% and the inhibition at 0.1 µM [21] was 71%. It also gave an inhibition at 0.1 µM [22] of -6%, an inhibition at 0.1 µM [23] of 2% and an inhibition at 0.1 µM [24] of -7%. For the same compound, the inhibition at 0.1 µM [25] was 33%, the inhibition at 0.1 µM [26] was 99% and the inhibition at 0.1 µM [27] was -5%. It also gave an inhibition at 0.1 µM [28] of 17%, an inhibition at 0.1 µM [29] of 102% and an inhibition at 0.1 µM [30] of 1%. The inhibition at 0.1 µM [31] was -24% and the inhibition at 0.1 µM [32] was 72%.

Compound `Cc1cc2c(F)c(Oc3nc(Nc4cc(C5CC5)[nH]n4)cc(N4CCNCC4)n3)ccc2[nH]1` [Compound 11, N-(5-cyclopropyl-1H-pyrazol-3-yl)-2-((4-fluoro-2-methyl-1H-indol-5-yl)oxy)-6-(piperazin-1-yl)pyrimidin-4-amine] has an inhibition at 0.1 µM [1] of 23%, an inhibition at 0.1 µM [2] of 64% and an inhibition at 0.1 µM [3] of -15%. It also gave an inhibition at 0.1 µM [4] of -8%, an inhibition at 0.1 µM [5] of 101% and an inhibition at 0.1 µM [6] of -1%. It also gave an inhibition at 0.1 µM [7] of 98%, an inhibition at 0.1 µM [8] of -14% and an inhibition at 0.1 µM [9] of -28%. It also gave an inhibition at 0.1 µM [10] of 99%, an inhibition at 0.1 µM [11] of 35% and an inhibition at 0.1 µM [12] of 0%. It also gave an inhibition at 0.1 µM [13] of -14%, an inhibition at 0.1 µM [14] of -8% and an inhibition at 0.1 µM [15] of 101%. For the same compound, the inhibition at 0.1 µM [16] was -16%, the inhibition at 0.1 µM [17] was -17% and the inhibition at 0.1 µM [18] was 65%. The inhibition at 0.1 µM [19] was 22%, the inhibition at 0.1 µM [20] was 2% and the inhibition at 0.1 µM [21] was 72%. It also gave an inhibition at 0.1 µM [22] of -1%, an inhibition at 0.1 µM [23] of 3% and an inhibition at 0.1 µM [24] of -14%. The inhibition at 0.1 µM [25] was 39%, the inhibition at 0.1 µM [26] was 95% and the inhibition at 0.1 µM [27] was 4%. The inhibition at 0.1 µM [28] was 30%, the inhibition at 0.1 µM [29] was 99% and the inhibition at 0.1 µM [30] was -2%. The inhibition at 0.1 µM [31] was 6% and the inhibition at 0.1 µM [32] was 72%.
